Results taken from publication PMC7794376 (Nature Communications, 2021).
“And” between values parts separate entries of the source, which are not always exact repeats. Equal entries are not always repeated. Where two headings read alike, the source gives them in different places.

How the values were obtained:
[1] = target: MtbCoaBC (Mycobacterium tuberculosis, UniProt P9WNZ1); assay: biochemical; format: biochemical; details: for activity at 0.015625 µM / activity at 0.03125 µM / activity at 0.0625 µM / activity at 0.25 µM / activity at 0.5 µM: relative to average DMSO CT; for Activity R1 / Activity R3: slope of absorbance at 360 nm vs time (s)
MtbCoaBC, sequence (P9WNZ1 whole entry): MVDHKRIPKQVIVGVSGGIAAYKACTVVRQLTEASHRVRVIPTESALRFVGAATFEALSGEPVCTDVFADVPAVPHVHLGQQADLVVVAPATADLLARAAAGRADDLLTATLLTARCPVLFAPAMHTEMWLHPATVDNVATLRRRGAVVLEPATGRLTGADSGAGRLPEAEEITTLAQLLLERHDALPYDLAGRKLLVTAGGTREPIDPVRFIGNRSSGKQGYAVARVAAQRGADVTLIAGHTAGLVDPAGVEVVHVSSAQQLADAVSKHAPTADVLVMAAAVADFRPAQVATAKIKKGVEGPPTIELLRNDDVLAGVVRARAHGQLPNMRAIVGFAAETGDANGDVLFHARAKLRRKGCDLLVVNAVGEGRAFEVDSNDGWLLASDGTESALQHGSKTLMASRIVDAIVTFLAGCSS

[2] = target: human CoaB (HCoaB) (Homo sapiens, UniProt Q9HAB8); assay: EnzChek pyrophosphate assay, HCoaB; format: biochemical
human CoaB (HCoaB), sequence (Q9HAB8 whole entry): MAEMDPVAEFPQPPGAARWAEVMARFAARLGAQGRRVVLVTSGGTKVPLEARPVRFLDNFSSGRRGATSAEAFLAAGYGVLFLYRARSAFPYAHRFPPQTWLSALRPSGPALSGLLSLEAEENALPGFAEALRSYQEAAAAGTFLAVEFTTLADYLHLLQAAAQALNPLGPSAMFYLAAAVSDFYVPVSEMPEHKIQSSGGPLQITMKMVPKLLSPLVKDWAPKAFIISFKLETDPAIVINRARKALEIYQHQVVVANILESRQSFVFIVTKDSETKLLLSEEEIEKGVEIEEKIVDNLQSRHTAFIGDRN

[3] = inhibitor concentration 1 (log 0), unit not shown, three replicates
[4] = inhibitor concentration 2 (log 0.30103), unit not shown, three replicates

O=c1cc(-c2ccc(O)c(O)c2)oc2cc(O)c(O)cc12 [compound 2b]
inhibition at 0.015625 µM ([1]; 0.015625 uM 2b, replicate R1, read-out: Inhibition % R1): 8.08%
activity at 0.015625 µM ([1]; 0.015625 uM 2b, replicate R1, read-out: Activity % R1): 91.9%
Activity R1 ([1]; 0.015625 uM 2b, replicate R1): 0.0001714
inhibition at 0.015625 µM ([1]; 0.015625 uM 2b, replicate R2, read-out: Inhibition % R2): 5.01%
activity at 0.015625 µM ([1]; 0.015625 uM 2b, replicate R2, read-out: Activity % R2): 95%
inhibition at 0.015625 µM ([1]; 0.015625 uM 2b, replicate R3, read-out: Inhibition % R3): 10.3%
activity at 0.015625 µM ([1]; 0.015625 uM 2b, replicate R3, read-out: Activity % R3): 89.7%
Activity R3 ([1]; 0.015625 uM 2b, replicate R3): 0.0001672
inhibition at 0.03125 µM ([1]; 0.03125 uM 2b, replicate R1, read-out: Inhibition % R1): 20.2%
activity at 0.03125 µM ([1]; 0.03125 uM 2b, replicate R1, read-out: Activity % R1): 79.8%
Activity R1 ([1]; 0.03125 uM 2b, replicate R1): 0.0001487
inhibition at 0.03125 µM ([1]; 0.03125 uM 2b, replicate R2, read-out: Inhibition % R2): 19.2%
activity at 0.03125 µM ([1]; 0.03125 uM 2b, replicate R2, read-out: Activity % R2): 80.8%
inhibition at 0.03125 µM ([1]; 0.03125 uM 2b, replicate R3, read-out: Inhibition % R3): 19.4%
activity at 0.03125 µM ([1]; 0.03125 uM 2b, replicate R3, read-out: Activity % R3): 80.6%
Activity R3 ([1]; 0.03125 uM 2b, replicate R3): 0.0001503
inhibition at 0.0625 µM ([1]; 0.0625 uM 2b, replicate R1, read-out: Inhibition % R1): 37.9%
activity at 0.0625 µM ([1]; 0.0625 uM 2b, replicate R1, read-out: Activity % R1): 62.1%
Activity R1 ([1]; 0.0625 uM 2b, replicate R1): 0.0001157
inhibition at 0.0625 µM ([1]; 0.0625 uM 2b, replicate R2, read-out: Inhibition % R2): 38.9%
activity at 0.0625 µM ([1]; 0.0625 uM 2b, replicate R2, read-out: Activity % R2): 61.2%
inhibition at 0.0625 µM ([1]; 0.0625 uM 2b, replicate R3, read-out: Inhibition % R3): 38%
activity at 0.0625 µM ([1]; 0.0625 uM 2b, replicate R3, read-out: Activity % R3): 62%
Activity R3 ([1]; 0.0625 uM 2b, replicate R3): 0.0001157
inhibition at 0.25 µM ([1]; 0.25 uM 2b, replicate R1, read-out: Inhibition % R1): 95%
activity at 0.25 µM ([1]; 0.25 uM 2b, replicate R1, read-out: Activity % R1): 4.96%
Activity R1 ([1]; 0.25 uM 2b, replicate R1): 0.000009249
activity at 0.25 µM ([1]; 0.25 uM 2b, replicate R2, read-out: Activity % R2): 4.35%
inhibition at 0.25 µM ([1]; 0.25 uM 2b, replicate R3, read-out: Inhibition % R3): 95.6%
activity at 0.25 µM ([1]; 0.25 uM 2b, replicate R3, read-out: Activity % R3): 4.39%
Activity R3 ([1]; 0.25 uM 2b, replicate R3): 0.000008176
inhibition at 0.5 µM ([1]; 0.5 uM 2b, replicate R1, read-out: Inhibition % R1): 97.8%
activity at 0.5 µM ([1]; 0.5 uM 2b, replicate R1, read-out: Activity % R1): 2.19%
Activity R1 ([1]; 0.5 uM 2b, replicate R1): 0.000004090
inhibition at 0.5 µM ([1]; 0.5 uM 2b, replicate R2, read-out: Inhibition % R2): 99%
activity at 0.5 µM ([1]; 0.5 uM 2b, replicate R2, read-out: Activity % R2): 1%
inhibition at 0.5 µM ([1]; 0.5 uM 2b, replicate R3, read-out: Inhibition % R3): 97%
activity at 0.5 µM ([1]; 0.5 uM 2b, replicate R3, read-out: Activity % R3): 3%
Activity R3 ([1]; 0.5 uM 2b, replicate R3): 0.000005588
inhibition, IC50 MtbCoaBC 2b [1, 3]: 99.01
reaction rate (slope of absorbance at 360 nm vs time), IC50 MtbCoaBC 2b [1, 3]: 0.000001846 and 0.000001860 and -0.000003443
remaining activity relative to control, IC50 MtbCoaBC 2b [1, 3]: 0.9903 and 0.9976 and -1.847
reaction rate (slope of absorbance at 360 nm vs time), IC50 MtbCoaBC 2b [1, 4]: -0.000001738 and -0.000001919 and -0.000000593
remaining activity relative to control, IC50 MtbCoaBC 2b [1, 4]: -0.932 and -1.029 and -0.318
IC50 ([1]; read-out: IC50 EnzChek MtbCoaBC): 0.08 ± 0.01 µM
inhibition at 0.25 µM ([1]; read-out: Inhibition % R2): 95.7%
IC50 ([2]; 1 µM enzyme, average of three independent experiments ± SD): 60 ± 7 µM
activity at 3.125 µM ([2]; 3.125 uM compound, HCoaB, relative to average DMSO CT, replicates R1-R3): 96.1%
Activity % ([2]; 3.125 uM compound, HCoaB, relative to average DMSO CT, replicates R1-R3, 3.125 µM): 99.35% and 93.21%
Inhibition % ([2]; 3.125 uM compound, HCoaB, replicates R1-R3, 3.125 µM): 0.65% and 6.79% and 3.88%
activity at 6.25 µM ([2]; 6.25 uM compound, HCoaB, relative to average DMSO CT, replicates R1-R3): 97.4%
Activity % ([2]; 6.25 uM compound, HCoaB, relative to average DMSO CT, replicates R1-R3, 6.25 µM): 94.68% and 99.68%
Inhibition % ([2]; 6.25 uM compound, HCoaB, replicates R1-R3, 6.25 µM): 5.32% and 0.32% and 2.58%
activity at 25 µM ([2]; 25 uM compound, HCoaB, relative to average DMSO CT, replicates R1-R3): 66.3%
Activity % ([2]; 25 uM compound, HCoaB, relative to average DMSO CT, replicates R1-R3, 25 µM): 70.2% and 69.67%
inhibition at 25 µM ([2]; 25 uM compound, HCoaB, replicates R1-R3): 29.8%
Inhibition % ([2]; 25 uM compound, HCoaB, replicates R1-R3, 25 µM): 30.33% and 33.67%
